{"source": "patent US10100097B2", "about": "“GIP-GLP-1 dual agonist compounds and methods” (Zealand Pharma A/S, priority 2012, dated 2018)", "key": {"human GLP-1 R": {"target": "T1, human GLP-1 R (Homo sapiens, UniProt P43220)", "T1 construct": "expressed in transfected cells", "T1 sequence (P43220 24-463)": "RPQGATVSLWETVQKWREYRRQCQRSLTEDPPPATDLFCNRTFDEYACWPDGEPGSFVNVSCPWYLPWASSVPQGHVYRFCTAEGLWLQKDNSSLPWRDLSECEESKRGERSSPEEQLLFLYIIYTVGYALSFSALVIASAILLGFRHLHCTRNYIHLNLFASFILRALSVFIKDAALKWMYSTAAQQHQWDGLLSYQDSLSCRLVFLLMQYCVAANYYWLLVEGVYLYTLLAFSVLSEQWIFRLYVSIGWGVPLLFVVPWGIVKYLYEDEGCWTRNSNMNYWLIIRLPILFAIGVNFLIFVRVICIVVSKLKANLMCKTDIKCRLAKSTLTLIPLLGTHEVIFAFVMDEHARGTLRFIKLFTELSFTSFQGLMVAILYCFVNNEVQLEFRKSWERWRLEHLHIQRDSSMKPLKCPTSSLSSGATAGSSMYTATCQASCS", "experiment": "Human GLP-1 receptor (GLP-1 R) activity assay, cAMP induction (AlphaScreen cAMP kit)", "assay_type": "cell-based", "conditions": "HEK293 cells expressing the human GLP-1 R, 15 min at 37° C., average values of multiple determinations, read-out: GLP1 R (EC50 in nM)", "method_in_brief": "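Stable HEK293 clones expressing human GIP R or GLP-1 R, grown 1 day, washed in Tyrode's buffer (10 mM HEPES, pH 7.4), then stimulated with peptide. Cells lysed and cAMP quantified by AlphaScreen competition with biotinylated cAMP, 1 h dark incubation at room temperature.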"}, "in vivo": {"experiment": "in vivo", "conditions": "C57BL/6J, mouse, plasma, sc, 200 nmol/kg", "protocol": "C57BL/6J mice were given a single subcutaneous dose of 200 nmol/kg body weight of each peptide to be tested. Blood samples were drawn 0.5, 2, 4, 6, 8, 16, 24 and 36 hours post-dose by sublingual bleeding. At each time point, samples from two mice were taken, i.e. 16 mice per compound. The mice were euthanized immediately after blood sampling by cervical dislocation. Plasma samples were analyzed after solid phase extraction (SPE) by liquid chromatography mass spectrometry (LC-MS/MS)."}, "Male C57BL/6J mice": {"test_system": "Male C57BL/6J mice", "experiment": "IPGTT (Intraperitoneal Glucose Tolerance Test) in mice", "assay_type": "in vivo", "conditions": "glucose 2 g/kg i.p., peptides s.c., all time points, p<0.05 vs. vehicle", "description": "IPGTT (Intraperitoneal Glucose Tolerance Test) in Mice\nMale C57BL/6J mice (Charles River, Germany) were maintained on normal chow (Altromin 1324, Brogaarden A/S, Gentofte, Denmark) and domestic quality water with added citric acid to pH˜3.6. The animals were housed pair-wise in a light-, temperature-, and humidity-controlled room (12:12 h light-dark cycle, with lights on at 06.00-18.00 hr; 20-22° C.; 50-80% relative humidity). Mice were fasted for 5 hr before the IPGTT. Peptides and vehicle were administered subcutaneously before the intraperitoneal injection of glucose (t=0 min; 2 g/kg; 5 ml/kg). Tail vein blood was sampled at time t=0 (before glucose administration), 15, 30, 45, 60, 90, and 120 min for measurements of blood glucose."}}, "note": "Numbered stars: 1 amine (or outer) side, 2 acyl side, 3 side chain; on linkers, the order of the positions; unused ones are H or OH. Square brackets hold non-standard residues; d marks the D form. Side chains are listed from the residue outwards. Peptide text beside a SMILES is read from it. * marks the point of attachment. γGlu = O=C(O)[C@H](CCC(=O)[*:2])N[*:1]; Palmitoyl = CCCCCCCCCCCCCCCC(=O)*; Aib = CC(C)(N)C(=O)O", "data": [{"smiles": "CCCCCCCCCCCCCCCC(=O)N[C@@H](CCC(=O)NCCCC[C@H](NC(=O)[C@H](CCCCN)NC(=O)[C@H](CC(=O)O)NC(=O)[C@H](CC(C)C)NC(=O)C(C)(C)NC(=O)[C@@H](NC(=O)[C@H](CO)NC(=O)[C@H](Cc1ccc(O)cc1)NC(=O)[C@H](CC(=O)O)NC(=O)[C@H](CO)NC(=O)[C@@H](NC(=O)[C@H](Cc1ccccc1)NC(=O)[C@@H](NC(=O)CNC(=O)[C@H](CCC(=O)O)NC(=O)C(C)(C)NC(=O)[C@@H](N)Cc1ccc(O)cc1)[C@@H](C)O)[C@@H](C)O)[C@@H](C)CC)C(=O)N[C@@H](C)C(=O)N[C@@H](CCC(N)=O)C(=O)N[C@@H](CCCNC(=N)N)C(=O)N[C@@H](C)C(=O)N[C@@H](Cc1ccccc1)C(=O)N[C@H](C(=O)N[C@@H](CCC(=O)O)C(=O)N[C@@H](Cc1c[nH]c2ccccc12)C(=O)N[C@@H](CC(C)C)C(=O)N[C@@H](CC(C)C)C(=O)N[C@@H](C)C(=O)N[C@@H](CCC(N)=O)C(=O)NCC(=O)N1CCC[C@H]1C(=O)N[C@@H](CO)C(=O)N[C@@H](CO)C(=O)NCC(=O)N[C@@H](C)C(=O)N1CCC[C@H]1C(=O)N1CCC[C@H]1C(=O)N1CCC[C@H]1C(=O)N[C@@H](CO)C(N)=O)C(C)C)C(=O)O", "note": "[Compound 32] (H-Y[Aib]EGTFTSDYSI[Aib]LDKK([γGlu-Palmitoyl])AQRAFVEWLLAQGPSSGAPPPS-NH2)", "values": [{"measurement": "EC50", "setting": "human GLP-1 R", "value": 0.018, "unit": "nM"}, {"measurement": "half-life", "setting": "in vivo", "value": 3.4, "unit": "h"}, {"measurement": "Effect on glucose tolerance as compared to vehicle", "setting": "Male C57BL/6J mice", "value": "significantly improved glucose tolerance"}]}]}
